Measurements: ChEMBL document CHEMBL3124745, “4-Bicyclic heteroaryl-piperidine derivatives as potent, orally bioavailable stearoyl-CoA desaturase-1 (SCD1) inhibitors: part 2. Pyridazine-based analogs” (Bioorg Med Chem Lett, 2014)

Key:
[1] = test system: Mus musculus; experiment: Antiobesity activity in diet-induced obese C57BL/6 mouse assessed as change in body weight at 30 mg/kg, po qd for 10 days (reference value: 2.8 +/- 0.3 g); assay type: functional
[2] = biological target: T1, Acyl-CoA desaturase 1 (Rattus norvegicus, UniProt P07308); experiment: Inhibition of SCD1 in Sprague-Dawley rat liver microsomes using stearoyl-[9,10-3H]-CoA as substrate
T1 sequence (P07308 whole entry): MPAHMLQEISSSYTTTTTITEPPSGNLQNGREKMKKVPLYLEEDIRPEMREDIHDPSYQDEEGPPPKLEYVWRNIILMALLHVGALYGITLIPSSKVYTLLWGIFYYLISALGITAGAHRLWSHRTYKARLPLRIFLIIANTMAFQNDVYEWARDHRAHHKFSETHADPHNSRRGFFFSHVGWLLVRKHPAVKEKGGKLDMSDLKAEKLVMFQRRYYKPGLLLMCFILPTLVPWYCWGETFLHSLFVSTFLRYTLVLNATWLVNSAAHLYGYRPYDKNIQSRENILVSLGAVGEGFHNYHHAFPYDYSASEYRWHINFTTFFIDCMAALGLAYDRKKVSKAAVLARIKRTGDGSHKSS

[3] = biological target: T2, Stearoyl-CoA desaturase (Homo sapiens, UniProt O00767); experiment: Inhibition of SCD1 in human A431 cells assessed as [13C]-palmitic acid conversion to [13C]-palmitoleic acid after 4 hrs by LC/MS analysis; assay type: cell-based, A-431
T2 sequence (O00767 whole entry): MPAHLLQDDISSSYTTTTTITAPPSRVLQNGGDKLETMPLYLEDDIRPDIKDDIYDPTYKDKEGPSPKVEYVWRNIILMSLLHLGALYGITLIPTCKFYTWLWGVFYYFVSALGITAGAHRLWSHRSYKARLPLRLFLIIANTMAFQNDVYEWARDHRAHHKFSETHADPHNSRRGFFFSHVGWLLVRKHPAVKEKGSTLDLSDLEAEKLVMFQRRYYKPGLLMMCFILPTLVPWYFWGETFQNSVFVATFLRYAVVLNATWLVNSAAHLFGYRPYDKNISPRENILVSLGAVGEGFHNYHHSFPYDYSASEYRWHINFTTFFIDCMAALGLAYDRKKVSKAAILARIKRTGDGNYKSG

[4] = Metabolic stability in rat liver microsomes assessed as compound remaining measured at 10 mins; assay type: ADME; details: read-out: Stability
[5] = Metabolic stability in human liver microsomes assessed as compound remaining measured at 10 mins; assay type: ADME; details: read-out: Stability
[6] = species: Rattus norvegicus; experiment: Antiobesity activity in Zucker fa/fa rat assessed as decrease in C16:1 to C16:0 plasma desaturation index after 26 days; assay type: functional, organism-based
[7] = Volume of distribution in Sprague-Dawley rat at 2 mg/kg, iv; assay type: ADME, organism-based; design: dose 2 mg/kg, route intravenous; details: in vivo
[8] = test system: Rattus norvegicus; experiment: Antiobesity activity in Zucker fa/fa rat assessed as effect on body weight gain at 1 mg/kg measured on day 8 (reference value: 61 +/- 7 g); assay type: functional
[9] = test system: Rattus norvegicus; experiment: Antiobesity activity in Zucker fa/fa rat assessed as effect on body weight gain at 1 mg/kg measured on day 15 (reference value: 103 +/- 4 g); assay type: functional
[10] = test system: Rattus norvegicus; experiment: Antiobesity activity in Zucker fa/fa rat assessed as effect on body weight gain at 3 mg/kg measured on day 15 (reference value: 103 +/- 4 g); assay type: functional
[11] = test system: Rattus norvegicus; experiment: Antiobesity activity in Zucker fa/fa rat assessed as effect on body weight gain at 10 mg/kg measured on day 22 (reference value: 142 +/- 4 g); assay type: functional
[12] = AUC (24 hrs) in Zucker fa/fa rat at 10 mg/kg, po; assay type: ADME, organism-based; design: time < 24 hr, dose 10 mg/kg, route oral; details: plasma
[13] = test system: Rattus norvegicus; experiment: Antiobesity activity in Zucker fa/fa rat assessed as C18:1 to C18:0 plasma desaturation index at 10 mg/kg after 26 days (reference value: 2.16 +/- 0.07); assay type: functional
[14] = test system: Rattus norvegicus; experiment: Antiobesity activity in Zucker fa/fa rat assessed as effect on body weight gain at 1 mg/kg measured on day 22 (reference value: 142 +/- 4 g); assay type: functional
[15] = test system: Rattus norvegicus; experiment: Toxicity in Zucker fa/fa rat assessed as narrow eye fissure at 10 mg/kg; assay type: organism-based; design: dose 10 mg/kg; details: in vivo
[16] = test system: Rattus norvegicus; experiment: Toxicity in Zucker fa/fa rat assessed as reduction in food intake at 10 mg/kg after 22 days relative to control; assay type: organism-based; design: dose 10 mg/kg; scale not given: the % may be the effect or the level left; details: in vivo, 528 h
[17] = test system: Rattus norvegicus; experiment: Toxicity in Zucker fa/fa rat assessed as change in food intake at 1 to 3 mg/kg after 26 days; assay type: organism-based; design: dose 1-3 mg/kg; details: in vivo, 624 h
[18] = test system: Rattus norvegicus; experiment: Antiobesity activity in Zucker fa/fa rat assessed as effect on body weight gain at 3 mg/kg measured on day 26 (reference value: 161 +/- 8 g); assay type: functional
[19] = AUC (24 hrs) in Sprague-Dawley rat at 10 mg/kg, po; assay type: ADME, organism-based; design: time < 24 hr, dose 10 mg/kg, route oral; details: plasma
[20] = test system: Rattus norvegicus; experiment: Hepatotoxicity in Zucker fa/fa rat assessed as increase in AST level at 1 to 10 mg/kg; assay type: toxicity, organism-based; design: dose 1-10 mg/kg; details: in vivo
[21] = Cmax in Sprague-Dawley rat at 10 mg/kg, po; assay type: ADME, organism-based; design: dose 10 mg/kg, route oral; details: in vivo
[22] = test system: Rattus norvegicus; experiment: Antiobesity activity in Zucker fa/fa rat assessed as effect on body weight gain at 3 mg/kg measured on day 8 (reference value: 61 +/- 7 g); assay type: functional
[23] = test system: Rattus norvegicus; experiment: Antiobesity activity in Zucker fa/fa rat assessed as effect on body weight gain at 10 mg/kg measured on day 26 (reference value: 161 +/- 8 g); assay type: functional
[24] = Cmax in Zucker fa/fa rat at 10 mg/kg, po; assay type: ADME, organism-based; design: dose 10 mg/kg, route oral; details: in vivo
[25] = test system: Rattus norvegicus; experiment: Antiobesity activity in Zucker fa/fa rat assessed as effect on body weight gain at 10 mg/kg measured on day 15 (reference value: 103 +/- 4 g); assay type: functional
[26] = Oral bioavailability in Sprague-Dawley rat at 10 mg/kg; assay type: ADME, organism-based; details: in vivo
[27] = test system: Rattus norvegicus; experiment: Antiobesity activity in Zucker fa/fa rat assessed as effect on body weight gain at 1 mg/kg measured on day 26 (reference value: 161 +/- 8 g); assay type: functional
[28] = test system: Rattus norvegicus; experiment: Antiobesity activity in Zucker fa/fa rat assessed as C16:1 to C16:0 plasma desaturation index at 3 mg/kg after 26 days (reference value: 0.183 +/- 0.012); assay type: functional
[29] = Clearance in Sprague-Dawley rat at 2 mg/kg, iv; assay type: ADME, organism-based; design: dose 2 mg/kg, route intravenous; details: in vivo
[30] = species: Rattus norvegicus; experiment: Antiobesity activity in Zucker fa/fa rat assessed as reduction in body weight gain after 26 days; assay type: functional, organism-based
[31] = Oral bioavailability in Zucker fa/fa rat at 10 mg/kg; assay type: ADME, organism-based; details: in vivo
[32] = test system: Rattus norvegicus; experiment: Antiobesity activity in Zucker fa/fa rat assessed as reduction in body weight gain at 1 mg/kg after 26 days relative to control; assay type: functional; design: scale not given: the % may be the effect or the level left
[33] = species: Rattus norvegicus; experiment: Antiobesity activity in Zucker fa/fa rat assessed as decrease in C18:1 to C18:0 plasma desaturation index after 26 days; assay type: functional, organism-based
[34] = test system: Rattus norvegicus; experiment: Antiobesity activity in Zucker fa/fa rat assessed as effect on body weight gain at 3 mg/kg measured on day 22 (reference value: 142 +/- 4 g); assay type: functional
[35] = test system: Rattus norvegicus; experiment: Antiobesity activity in Zucker fa/fa rat assessed as reduction in body weight gain at 3 mg/kg after 26 days relative to control; assay type: functional; design: scale not given: the % may be the effect or the level left
[36] = test system: Rattus norvegicus; experiment: Hepatotoxicity in Zucker fa/fa rat assessed as increase in ALT level at 1 to 10 mg/kg; assay type: toxicity, organism-based; design: dose 1-10 mg/kg; details: in vivo
[37] = test system: Rattus norvegicus; experiment: Antiobesity activity in Zucker fa/fa rat assessed as reduction in body weight gain at 10 mg/kg after 26 days relative to control; assay type: functional; design: scale not given: the % may be the effect or the level left
[38] = test system: Rattus norvegicus; experiment: Antiobesity activity in Zucker fa/fa rat assessed as C16:1 to C16:0 plasma desaturation index at 10 mg/kg after 26 days (reference value: 0.183 +/- 0.012); assay type: functional
[39] = test system: Mus musculus; experiment: Toxicity in diet-induced obese C57BL/6 mouse assessed as narrow eye fissure at 30 mg/kg, po; assay type: organism-based; design: dose 30 mg/kg, route oral; details: in vivo
[40] = test system: Rattus norvegicus; experiment: Antiobesity activity in Zucker fa/fa rat assessed as effect on body weight gain at 10 mg/kg measured on day 8 (reference value: 61 +/- 7 g); assay type: functional

Compound: OCc1cnn(-c2ccc(N3CCC(N4CCc5ccc(F)cc54)CC3)nn2)c1
- Activity [1]: 1.2 g
- IC50 [2]: 17 nM
- IC50 [3]: 6 nM

Compound: CCOCCn1cc(-c2ccc(N3CCC(N4CCc5ccc(F)cc54)CC3)nn2)cn1
- remaining at 10 min [4]: < 50%
- remaining at 10 min [5]: < 50%

Compound: CCCn1cc(-c2ccc(N3CCC(N4CCc5ccc(F)cc54)CC3)nn2)cn1
- remaining at 10 min [4]: < 50%
- remaining at 10 min [5]: < 50%

Compound: CN(C)c1ccc(-c2ccc(N3CCC(N4CCc5ccc(F)cc54)CC3)nn2)cn1
- IC50 [2]: 17 nM
- IC50 [3]: 30 nM

Compound: OCCn1cc(-c2ccc(N3CCC(N4CCc5ccc(F)cc54)CC3)nn2)cn1
- Activity [1]: 0.5 g
- IC50 [2]: 22 nM

Compound: CCOc1cnn(-c2ccc(N3CCC(N4CCc5ccc(F)cc54)CC3)nn2)c1
- remaining at 10 min [4]: < 50%
- remaining at 10 min [5]: < 50%
- IC50 [2]: 8 nM
- IC50 [3]: 9 nM

Compound: Cn1cc(-c2ccc(N3CCC(N4CCc5ccc(F)cc54)CC3)nn2)cn1
- Activity [6]: Dose-dependent effect
- Vd [7]: 0.52 L/kg
- Activity [8]: 42 g
- Activity [9]: 80 g
- Activity [10]: 80 g
- Activity [11]: 72 g
- AUC at 24 h [12]: 10800 ng·h/mL
- Activity [13]: 0.92
- Activity [14]: 116 g
- Activity [15]: Toxic
- Activity [16]: 10%
- Activity [1]: -2.1 g
- Activity [17]: Non-toxic
- Activity [18]: 125 g
- AUC at 24 h [19]: 38800 ng·h/mL
- Activity [20]: Non-toxic
- Cmax [21]: 4400 ng/mL
- Activity [22]: 44 g
- Activity [23]: 78 g
- Cmax [24]: 1600 ng/mL
- Activity [25]: 57 g
- bioavailability [26]: 105%
- Activity [27]: 133 g
- Activity [28]: 0.088
- clearance [29]: 3.3 mL/min/kg
- Activity [30]: Dose-dependent effect
- bioavailability [31]: 11%
- Activity [32]: 17%
- Activity [33]: Dose-dependent effect
- Activity [34]: 112 g
- Activity [35]: 22%
- Activity [36]: Non-toxic
- Activity [37]: 51%
- Activity [38]: 0.078
- Activity [39]: Toxic
- Activity [40]: 29 g

Compound: Cc1ccc(-c2ccc(N3CCC(N4CCc5ccc(F)cc54)CC3)nn2)cn1
- IC50 [2]: 13 nM

Compound: Cc1cnc(-c2ccc(N3CCC(N4CCc5ccc(F)cc54)CC3)nn2)s1
- IC50 [3]: 12 nM

Compound: Cc1ccc(-c2ccc(N3CCC(N4CCc5ccc(F)cc54)CC3)nn2)cc1
- IC50 [3]: 11 nM

Compound: OCc1ccc(-c2ccc(N3CCC(N4CCc5ccc(F)cc54)CC3)nn2)cn1
- Activity [1]: -2.2 g

Compound: CCn1cc(-c2ccc(N3CCC(N4CCc5ccc(F)cc54)CC3)nn2)cn1
- IC50 [3]: 30 nM

Compound: Cn1cc(-c2ccc(N3CCC(n4ncc5ccc(F)cc54)CC3)nn2)cn1
- Activity [1]: -3.3 g
- IC50 [3]: 51 nM
